Counter-ions that a name gives are not always drawn. Like-named read-outs stand apart in the source and are kept apart here.
Assays:
[1] = target: T1, Alpha-2D Adrenergic Receptor (Rattus norvegicus, UniProt P22909); test: Alpha-2D Adrenergic Receptor Binding Assay (3H-para-aminoclonidine, rat cortex membranes); details: for % inh of α2D: cells printed with % sign, test concentration not given
T1 construct: aliquots of the synaptic membrane fraction, the ligand ^3H-para-aminoclonidine and test drug; from tissue; host or cells: rat brain cortex, synaptic membrane fraction
T1 sequence (P22909 1-465): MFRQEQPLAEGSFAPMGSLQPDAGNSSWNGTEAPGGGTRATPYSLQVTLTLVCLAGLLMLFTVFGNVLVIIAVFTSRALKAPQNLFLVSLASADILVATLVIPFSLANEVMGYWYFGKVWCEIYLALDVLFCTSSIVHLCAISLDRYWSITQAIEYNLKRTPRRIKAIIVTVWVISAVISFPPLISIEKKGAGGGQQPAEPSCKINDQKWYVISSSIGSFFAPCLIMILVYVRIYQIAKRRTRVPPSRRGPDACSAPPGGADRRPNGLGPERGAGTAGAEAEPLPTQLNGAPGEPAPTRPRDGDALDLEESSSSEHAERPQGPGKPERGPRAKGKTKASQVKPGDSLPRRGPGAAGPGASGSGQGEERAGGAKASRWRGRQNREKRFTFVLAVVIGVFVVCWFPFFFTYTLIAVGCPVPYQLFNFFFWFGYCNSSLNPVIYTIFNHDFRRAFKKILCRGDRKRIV
Protocol: Alpha-2D Adrenergic Receptor Binding Assay
Male, Wistar rats (150-250 g, VAF, Charles River, Kingston, N.Y.) are sacrificed by cervical dislocation and their brains removed and placed immediately in ice cold HEPES buffered sucrose. The cortex is dissected out and homogenized in 20 volumes of HEPES sucrose in a Teflon™-glass homogenizer. The homogenate is centrifuged at 1000 g for 10 min, and the resulting supernatant centrifuged at 42,000 g for 10 min. The resulting pellet is resuspended in 30 volumes of 3 mM potassium phosphate buffer, pH 7.5, preincubated at 25° C. for 30 min and recentrifuged. The resulting pellet is resuspended as described above and used for the receptor binding assay. […] The incubation is terminated by filtration of the tube contents through glass fiber filter sheets. Following washing of the sheets with 10 mM HEPES buffer, the adhering radioactivity is quantified by liquid scintillation spectrometry.
Binding of the test drug to the receptor is determined by comparing the amount of radiolabeled ligand bound in control tubes without drug to the amount of radiolabeled ligand bound in the presence of the drug. Dose-response data are analyzed with LIGAND, a nonlinear curve fitting program designed specifically for the analysis of ligand binding data.

[2] = system: mouse acetylcholine bromide-induced abdominal constriction; test: Mouse Acetylcholine Bromide-Induced Abdominal Constriction Assay (MAIT); format: in vivo; details: po; dose not given; acetylcholine bromide 5.5 mg/kg i.p. 30 minutes after drug
Protocol: Mouse Acetylcholine Bromide-Induced Abdominal Constriction Assay (MAIT)
The mouse acetylcholine bromide-induced abdominal constriction assay, as described by Collier et al. in Brit. J. Pharmacol. Chem. Ther., 32: 295-310, 1968, with minor modifications was used to assess analgesic potency of the compounds herein. The test drugs or appropriate vehicle were administered orally (p.o.) and 30 minutes later the animal received an intraperitoneal (i.p.) injection of 5.5 mg/kg acetylcholine bromide (Matheson, Coleman and Bell, East Rutherford, N.J.). The mice were then placed in groups of three into glass bell jars and observed for a ten minute observation period for the occurrence of an abdominal constriction response (defined as a wave of constriction and elongation passing caudally along the abdominal wall, accompanied by a twisting of the trunk and followed by extension of the hind limbs). The percent inhibition of this response to a nociceptive, stimulus (equated to % analgesia) was calculated as follows: The % Inhibition of response, i.e., % analgesia is equal to the difference between the number of control animals responding and the number of drug-treated animals responding times 100 divided by the number of control animals responding.
At least 15 animals were used for control and in each of the drug treated groups. […] The ED50 values and their 95% fiducial limits were determined by a computer assisted probit analysis.

Row | SMILES | melting point | Ki [1] | % inh of MAIT [2] | % inh of α2D [1] | Ki ([1]; rat cortex synaptic membranes, ligand 3H-para-aminoclonidine, cells without % sign, read-out: α2D Ki)
1 | Cc1ncccc1Cc1c[nH]cn1.Cl.Cl [Cp-1, 4-[(2-Methylpyrid-3-yl)methyl]-1H-imidazole Dihydrochloride] | 236 to 237.5 °C | 7.1 nM | 93 po % | – | –
2 | Cc1ncccc1CCc1c[nH]cn1.Cl.Cl [Cp-2, 4-[(2-Methylpyrid-3-yl)ethyl]-1H-imidazole Dihydrochloride] | 258.5 to 263 °C | – | – | – | –
3 | Cl.Cl.c1cncc(Cc2c[nH]cn2)c1 [Cp-3] | – | – | 47 po % | 89% | –
4 | Brc1cncc(Cc2c[nH]cn2)c1.O=C(O)/C=C/C(=O)O [Cp-4, 4-[(5-Bromopyridin-3-yl)methyl]-1H-imidazole Fumarate] | 139 to 145 °C | – | 54 po % | 83% | –
5 | Brc1cncc(CCc2c[nH]cn2)c1.O=C(O)/C=C/C(=O)O [Cp-5, 4-[(5-Bromopyridin-3-yl)ethyl]-1H-imidazole Fumarate] | 156 to 158 °C | – | – | – | –
6 | Cl.c1ccc(Cc2c[nH]cn2)nc1 [Cp-6, 4-[(Pyridin-2-yl)methyl]-1H-imidazole Hydrochloride] | 197 to 200 °C | – | 40 po % | 83% | –
7 | c1ccc(C(c2ccccn2)c2c[nH]cn2)cc1 (stereo not shown) [Cp-7, 4-[(Pyridin-2-yl)methylphenyl]-1H-imidazole] | – | – | 13 po % | – | 1000 nM
8 | c1ccc2nc(Cc3c[nH]cn3)ccc2c1 [Cp-9] | – | 1.6 nM | 20 po % | – | –
9 | Cc1ncccc1C(C)c1c[nH]cn1 (stereo not shown) [Dihydrochloride] | – | – | 33 po % | – | –
10 | CC(c1cncc(Br)c1)c1c[nH]cn1 (stereo not shown) [Fumarate] | – | – | 53 po % | – | –
